Reference: ChEMBL document CHEMBL4339242, “Pyranoflavanones and Pyranochalcones from the Fruits of Amomum tsao-ko” (J Nat Prod, 2019)
pIC50: −log10 of the molar value.

How the values were obtained:
RAW264.7 [1] = experiment: Inhibition of lipopolysaccharide-induced nitric oxide production in mouse RAW264.7 cells by Griess reagent based assay; assay type: functional, cell-based
RAW264.7 [2] = experiment: Toxicity in lipopolysaccharide-induced mouse RAW264.7 cells by MTT-based colorimetric assay; assay type: cell-based

Structure (SMILES) | pIC50 (RAW264.7 [1]) | Activity (RAW264.7 [2])
COc1cc2c(c3c1C(=O)C[C@H](c1ccccc1)O3)C=CC(C)(CCC=C(C)C)O2 (stereo partly specified) | 4.97 | Non-Toxic
COc1cc2c(c3c1C(=O)C[C@H](c1ccc(O)cc1)O3)C=CC(C)(CC/C=C(\C)CCC=C(C)C)O2 (stereo partly specified) | 4.38 | Non-Toxic
COc1cc2c(c3c1C(=O)C[C@H](c1ccccc1)O3)C=CC(C)(CC/C=C(\C)CCC=C(C)C)O2 (stereo partly specified) | 4.58 | Non-Toxic
COc1cc2c(c3c1C(=O)C[C@@H](c1ccc(O)cc1)O3)C=CC(C)(CC/C=C(\C)CCC=C(C)C)O2 (stereo partly specified) | 4.41 | Non-Toxic
COc1cc2c(c3c1C(=O)C[C@@H](c1ccc(O)cc1)O3)C=CC(C)(CCC=C(C)C)O2 (stereo partly specified) | 4.85 | Non-Toxic
N=C(N)NN [PIMAGEDINE] | 4.66 | 

Further compounds by rising pIC50 (RAW264.7 [1]), results first:

pIC50 (RAW264.7 [1]) | Structure (SMILES) | Activity (RAW264.7 [2])
4.51 | COc1cc2c(c(O)c1C(=O)/C=C/c1ccc(O)cc1)C=CC(C)(CC/C=C(\C)CCC=C(C)C)O2 (stereo unspecified) | Non-Toxic
4.54 | COc1cc2c(c3c1C(=O)C[C@@H](c1ccccc1)O3)C=CC(C)(CC/C=C(\C)CCC=C(C)C)O2 (stereo partly specified) | Non-Toxic
4.79 | COc1cc2c(c3c1C(=O)C[C@H](c1ccc(O)cc1)O3)C=CC(C)(CCC=C(C)C)O2 (stereo partly specified) | Non-Toxic
4.87 | COc1cc2c(c3c1C(=O)C[C@@H](c1ccccc1)O3)C=CC(C)(CCC=C(C)C)O2 (stereo partly specified) | Non-Toxic
4.87 | COc1cc2c(c(O)c1C(=O)/C=C/c1ccccc1)C=CC(C)(CC/C=C(\C)CCC=C(C)C)O2 (stereo unspecified) | Non-Toxic
